In the test the target is T1, PPARγ (Homo sapiens, UniProt P37231).
T1 construct: gene PPARG; GST-fused human PPARγ-LBD
T1 sequence (P37231 231-505 limits assumed): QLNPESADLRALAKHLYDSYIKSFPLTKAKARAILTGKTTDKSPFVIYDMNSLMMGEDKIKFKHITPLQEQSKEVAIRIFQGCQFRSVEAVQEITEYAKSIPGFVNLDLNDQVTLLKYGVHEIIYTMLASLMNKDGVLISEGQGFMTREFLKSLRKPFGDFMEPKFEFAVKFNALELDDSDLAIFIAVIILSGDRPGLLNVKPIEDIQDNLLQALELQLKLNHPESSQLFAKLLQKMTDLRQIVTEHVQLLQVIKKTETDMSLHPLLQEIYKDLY
The experiment in a line: LanthaScreen TR-FRET competitive binding assay (displacement of fluorescent PPAR ligand). (In TR-FRET formats the signal depends on donor and acceptor labels being close together.)

The values that follow come from article PMC6017286, “VSP-17, a New PPARγ Agonist, Suppresses the Metastasis of Triple-Negative Breast Cancer via Upregulating the Expression of E-Cadherin” (Molecules : A Journal of Synthetic Chemistry and Natural …, 2018).

On to `O=C(NCc1ccncc1)c1ccc2c(ccn2Cc2ccc(C(F)(F)F)cc2)c1` [VSP-17], for which the Ki came to 270 nM.

By Ki is commonly meant the dissociation constant of the complex between target and ligand, obtained from inhibition or displacement. Higher therefore signals lower affinity.
